Experimental data published in US11839613B2, “Pyrimidine derivatives as PGE2 receptor modulators” (IDORSIA PHARMACEUTICALS LTD, priority 2017, dated 2023).

Key:
PTGER2 (EP2) = PTGER2 (EP2) (Homo sapiens (Human), UniProt P43116); test: hEP2 b-arrestin assay (PathHunter HEK 293 PTGER2 b-arrestin cells); format: cell-based; conditions: antagonistic activity, beta-arrestin assay; read-out: hEP2 b-arr IC50
Procedure: Plate is pre-incubated 15 minutes at 37° C. Then five microliters of PGE2 (final conc. 5 μM) are transferred into the assay plate. Plate is incubated 120 minutes at 37° C.
(each concentration is measured in duplicate)

PTGER4 (EP4) = PTGER4 (EP4) (Homo sapiens (Human), UniProt P35408); test: cell-based
PTGER4 (EP4), sequence (P35408 whole entry): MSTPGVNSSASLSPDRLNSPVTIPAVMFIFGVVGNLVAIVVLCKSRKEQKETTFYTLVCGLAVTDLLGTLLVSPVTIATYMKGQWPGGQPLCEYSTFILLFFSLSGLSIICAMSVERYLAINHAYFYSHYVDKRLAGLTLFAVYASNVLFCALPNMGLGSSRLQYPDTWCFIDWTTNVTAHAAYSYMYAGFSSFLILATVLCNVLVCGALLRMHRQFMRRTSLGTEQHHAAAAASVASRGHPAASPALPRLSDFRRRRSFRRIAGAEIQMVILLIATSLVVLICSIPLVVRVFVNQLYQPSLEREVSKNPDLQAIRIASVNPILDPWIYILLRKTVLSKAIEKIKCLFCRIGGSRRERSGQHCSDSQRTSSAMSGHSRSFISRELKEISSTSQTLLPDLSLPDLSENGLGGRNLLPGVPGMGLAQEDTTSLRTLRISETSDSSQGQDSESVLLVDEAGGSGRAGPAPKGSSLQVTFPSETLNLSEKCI

PTGER2 (EP2), sequence (P43116 whole entry): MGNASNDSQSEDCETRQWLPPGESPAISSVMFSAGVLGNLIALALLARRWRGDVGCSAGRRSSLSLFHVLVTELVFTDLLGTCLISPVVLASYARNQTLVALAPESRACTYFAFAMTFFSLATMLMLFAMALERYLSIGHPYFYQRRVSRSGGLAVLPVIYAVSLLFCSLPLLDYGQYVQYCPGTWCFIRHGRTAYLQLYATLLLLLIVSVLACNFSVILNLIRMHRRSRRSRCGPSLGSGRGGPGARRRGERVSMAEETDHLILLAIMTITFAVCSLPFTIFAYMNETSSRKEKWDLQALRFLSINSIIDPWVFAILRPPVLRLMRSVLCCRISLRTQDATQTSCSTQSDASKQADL

Row | IC50 (PTGER2 (EP2)) [nM] | IC50 (PTGER4 (EP4)) [nM] | SMILES
1 | 231 | 121 | CCOc1cc(-c2cc(NCCc3cc(F)c4sccc4c3)ncn2)ccc1C(N)=O [Example 461, 2-Ethoxy-4-{6-[2-(7-fluoro-benzo[b]thiophen-5-yl)-ethylamino]-pyrimidin-4-yl}benzamide]
2 | 58 | 23 | CCOc1cc(-c2cc(NCCc3ccc4ccccc4c3C)ncn2)ccc1-c1noc(=S)[nH]1 [Example 565, 3-(2-Ethoxy-4-{6-[2-(1-methyl-naphthalen-2-yl)-ethylamino]-pyrimidin-4-yl}-phenyl)-[1,2,4]oxadiazole-5(4H)-thione]
3 | 63 | 52 | COc1c(CCNc2cc(-c3ccc(C(=O)O)c(CC(C)C)c3)ncn2)cc2ccsc2c1F [Example 415, 4-{6-[2-(7-Fluoro-6-methoxy-benzo[b]thiophen-5-yl)-ethylamino]-pyrimidin-4-yl}-2-isobutyl-benzoic acid]
4 | 502 | 480 | CCOc1cc(-c2cc(NCCc3cc4ccsc4cc3C)ncn2)cc(F)c1CC(=O)O [Example 469, (2-Ethoxy-6-fluoro-4-{6-[2-(6-methyl-benzo[b]thiophen-5-yl)-ethylamino]-pyrimidin-4-yl}-phenyl)-acetic acid]
5 | 10 | 53 | COc1cc2c(c(C)c1CCNc1cc(-c3ccc(CC(=O)O)c(OC(F)F)c3)ncn1)OCCO2 [Example 441, (2-Difluoromethoxy-4-{6-[2-(7-methoxy-5-methyl-2,3-dihydro-benzo[1,4]dioxin-6-yl)-ethylamino]-pyrimidin-4-yl}-phenyl)-acetic acid]
6 | 145 | 28 | COc1cc(-c2cc(NCCc3c(OC)cc4ccccc4c3C)ncn2)ccc1CC(=O)O [Example 384, (2-Methoxy-4-{6-[2-(3-methoxy-1-methyl-naphthalen-2-yl)-ethylamino]-pyrimidin-4-yl}-phenyl)-acetic acid]
7 | 77 | 193 | CSc1cc(-c2cc(NCCc3cc4c(cc3OC(F)F)OCCO4)ncn2)ccc1C(=O)O [Example 495, 4-{6-[2-(7-Difluoromethoxy-2,3-dihydro-benzo[1,4]dioxin-6-yl)-ethylamino]-pyrimidin-4-yl}-2-methylsulfanyl-benzoic acid]
8 | 86 | 88 | CCOc1cc(-c2cc(NCCc3cc4ccsc4cc3OC)ncn2)cc(F)c1CC(=O)O [Example 371, (2-Ethoxy-6-fluoro-4-{6-[2-(6-methoxy-benzo[b]thiophen-5-yl)-ethylamino]-pyrimidin-4-yl}-phenyl)-acetic acid]
9 | 699 | 55 | O=c1[nH]c(-c2ccc(-c3cc(NCCc4cc(F)c5sccc5c4)ncn3)cc2)no1 [Example 529, 3-(4-(6-((2-(7-fluorobenzo[b]thiophen-5-yl)ethyl)amino)pyrimidin-4-yl)phenyl)-[1,2,4]oxadiazol-5(4H)-one]
10 | 723 | 45 | CCOc1cc(-c2cc(NCCc3cc(C(F)(F)F)c4sccc4c3)ncn2)sc1C(=O)O [Example 488, 3-Ethoxy-5-{6-[2-(7-trifluoromethyl-benzo[b]thiophen-5-yl)-ethylamino]-pyrimidin-4-yl}-thiophene-2-carboxylic acid]
11 | 125 | 122 | COc1cc(-c2cc(NCCc3cc4ccsc4c(F)c3OC)ncn2)ccc1CC(=O)O [Example 485, (4-{6-[2-(7-Fluoro-6-methoxy-benzo[b]thiophen-5-yl)-ethylamino]-pyrimidin-4-yl}-2-methoxy-phenyl)-acetic acid]
12 | 102 | 157 | C#Cc1cc2c(cc1CCNc1cc(-c3ccc(CC(=O)O)c(OC)c3)ncn1)OCCO2 [Example 503, (4-{6-[2-(7-Ethynyl-2,3-dihydro-benzo[1,4]dioxin-6-yl)-ethylamino]-pyrimidin-4-yl}-2-methoxy-phenyl)-acetic acid]
13 | 588 | 908 | O=C(O)c1ccc(-c2cc(NCCc3cc(F)c4sccc4c3)ncn2)cc1 [Example 496, 4-{6-[2-(7-Fluoro-benzo[b]thiophen-5-yl)-ethylamino]-pyrimidin-4-yl}-benzoic acid]
14 | 131 | 204 | COc1cc2c(cc1CCNc1cc(-c3ccc(CC(=O)O)c(OC(F)F)c3)ncn1)OCCO2 [Example 522, (2-Difluoromethoxy-4-{6-[2-(7-methoxy-2,3-dihydro-benzo[1,4]dioxin-6-yl)-ethylamino]-pyrimidin-4-yl}-phenyl)-acetic acid]
15 | 57 | 65 | CCOc1cc2c(cc1CCNc1cc(-c3cc(F)c(CC(=O)O)c(OCC)c3)ncn1)OCCO2 [Example 403, (2-Ethoxy-4-{6-[2-(7-ethoxy-2,3-dihydro-benzo[1,4]dioxin-6-yl)-ethylamino]-pyrimidin-4-yl}-6-fluoro-phenyl)-acetic acid]
16 | 994 | 117 | CCCc1cc(-c2cc(NCCc3cc(F)c4sccc4c3)ncn2)ccc1C1(C(=O)O)CC1 [Example 557, 1-(4-{6-[2-(7-Fluoro-benzo[b]thiophen-5-yl)-ethylamino]-pyrimidin-4-yl}-2-propyl-phenyl)-cyclopropanecarboxylic acid]

Row | IC50 (PTGER2 (EP2)) [nM] | IC50 (PTGER4 (EP4)) [nM] | SMILES
17 | 200 | 176 | CCCc1cc(-c2cc(NCCc3cc(F)c4sccc4c3)ncn2)ccc1C(N)=O [Example 457, 4-{6-[2-(7-Fluoro-benzo[b]thiophen-5-yl)-ethylamino]-pyrimidin-4-yl}-2-propyl-benzamide]
18 | 67 | 893 | CCc1cc(-c2cc(NCCc3ccc4c(c3C)OCCO4)ncn2)ccc1C(=O)O [Example 515, 2-Ethyl-4-{6-[2-(5-methyl-2,3-dihydro-benzo[1,4]dioxin-6-yl)-ethylamino]-pyrimidin-4-yl}-benzoic acid]
19 | 29 | 24 | CCCc1cc(-c2cc(NCCc3c(OC)cc4c(c3F)OCCO4)ncn2)ccc1CC(=O)O [Example 408, (4-{6-[2-(5-Fluoro-7-methoxy-2,3-dihydro-benzo[1,4]dioxin-6-yl)-ethylamino]-pyrimidin-4-yl}-2-propyl-phenyl)-acetic acid]
20 | 609 | 91 | CCc1cc(-c2cc(NCCc3cc(F)c4sccc4c3)ncn2)cc(C)c1CC(=O)O [Example 542, (2-Ethyl-4-{6-[2-(7-fluoro-benzo[b]thiophen-5-yl)-ethylamino]-pyrimidin-4-yl}-6-methyl-phenyl)-acetic acid]
21 | 83 | 46 | O=C(O)c1ccc(-c2cc(NCCc3cc(F)c4sccc4c3)ncn2)cc1OC1CC1 [Example 449, 2-Cyclopropoxy-4-{6-[2-(7-fluoro-benzo[b]thiophen-5-yl)-ethylamino]-pyrimidin-4-yl}-benzoic acid]
22 | 394 | 25 | CCc1cc(-c2cc(NCCc3cc(F)c4sccc4c3)ncn2)sc1CC(=O)O [Example 545, (3-Ethyl-5-{6-[2-(7-fluoro-benzo[b]thiophen-5-yl)-ethylamino]-pyrimidin-4-yl}-thiophen-2-yl)-acetic acid]
23 | 66 | 292 | CCCOc1cc(-c2cc(NCCc3cc4ccsc4cc3OC)ncn2)ccc1CC(=O)O [Example 392, (4-{6-[2-(6-Methoxy-benzo[b]thiophen-5-yl)-ethylamino]-pyrimidin-4-yl}-2-propoxy-phenyl)-acetic acid]
24 | 388 | 103 | O=C(O)c1cccc2cc(-c3cc(NCCc4cc(F)c5sccc5c4)ncn3)[nH]c12 [Example 561, 2-{6-[2-(7-Fluoro-benzo[b]thiophen-5-yl)-ethylamino]-pyrimidin-4-yl}-1H-indole-7-carboxylic acid]
25 | 788 | 242 | CCCc1cc(-c2cc(NCCc3cc(C)c4sccc4c3)ncn2)ccc1C(=O)O [Example 478, 4-{6-[2-(7-Methyl-benzo[b]thiophen-5-yl)-ethylamino]-pyrimidin-4-yl}-2-propyl-benzoic acid]
26 | 160 | 349 | COc1cc2c(cc1CCNc1cc(-c3ccc(CC(=O)O)c(C(F)(F)F)c3)ncn1)OCCO2 [Example 525, (4-{6-[2-(7-Methoxy-2,3-dihydro-benzo[1,4]dioxin-6-yl)-ethylamino]-pyrimidin-4-yl}-2-trifluoromethyl-phenyl)-acetic acid]
27 | 249 | 23 | CCOc1cc(-c2cc(NCCc3cc(F)c4sccc4c3)ncn2)ccc1OCCC(=O)O [Example 422, 3-(2-Ethoxy-4-{6-[2-(7-fluoro-benzo[b]thiophen-5-yl)-ethylamino]-pyrimidin-4-yl}-phenoxy)-propionic acid]
28 | 116 | 176 | CCc1cc(-c2cc(NCCc3cc(F)c4sccc4c3)ncn2)ccc1C(=O)O [Example 518, 2-Ethyl-4-{6-[2-(7-fluoro-benzo[b]thiophen-5-yl)-ethylamino]-pyrimidin-4-yl}-benzoic acid]
29 | 62 | 41 | CC(C)Cc1cc(-c2cc(NCCc3ccc4sccc4c3F)ncn2)ccc1C(=O)O [Example 413, 4-{6-[2-(4-Fluoro-benzo[b]thiophen-5-yl)-ethylamino]-pyrimidin-4-yl}-2-isobutyl-benzoic acid]
30 | 65 | 152 | CCOc1cc2c(cc1CCNc1cc(-c3ccc(CC(=O)O)c(OC(C)C)c3)ncn1)OCCO2 [Example 425, (4-{6-[2-(7-Ethoxy-2,3-dihydro-benzo[1,4]dioxin-6-yl)-ethylamino]-pyrimidin-4-yl}-2-isopropoxy-phenyl)-acetic acid]
31 | 221 | 66 | CCOc1cc(-c2cc(NCCc3ccc4sccc4c3F)ncn2)ccc1CC(=O)O [Example 368, (2-Ethoxy-4-{6-[2-(4-fluoro-benzo[b]thiophen-5-yl)-ethylamino]-pyrimidin-4-yl}-phenyl)-acetic acid]
32 | 38 | 174 | CCOc1cc2c(cc1CCNc1cc(-c3ccc(C(=O)O)c(CC(C)C)c3)ncn1)OCCO2 [Example 417, 4-{6-[2-(7-Ethoxy-2,3-dihydro-benzo[1,4]dioxin-6-yl)-ethylamino]-pyrimidin-4-yl}-2-isobutyl-benzoic acid]
